This note sets out measurements from patent US10940139B2, “Compounds that interact with the Ras superfamily for the treatment of cancers, inflammatory diseases, rasopathies, and fibrotic disease” (Shy Therapeutics LLC, priority 2017, dated 2021).

In one experiment the target is KRas G12D mutant protein (Homo sapiens (Human), UniProt P01116, G12D). The experiment is described as follows: Ras GTP binding domain inhibition assay (labeled GTP). Conditions: at 20 μM; read-out: KRas G12D % Inh. Here is the method: The following method was developed as specific assay for KRas G12D mutant protein.
Buffer-I: • 50 mM Tris, pH 7.5 • 150 mM NaCl (optional) • 1 mM MgCl2 • 1 mM DTT. • KRas G12D mutant protein was expressed as a His-tagged protein. Purified His-KRas G12D protein was diluted in buffer-I to a final concentration of 3-10 μg/ml. • 200 μl of the diluted His-KRas G12D protein was added to a nickel coated 96 well plate and incubated overnight at 4° C. • The next day, wells were washed 3× in 200 μl of Buffer-I. • Then 200 μl of Buffer-I were added to each well in the presence of 1% DMSO. • Tested compounds were added to the protein-coated wells at a concentration of 20 μM, and incubated for 3 hours at room temperature. While performing IC50 measurements a serial dilution of all tested concentrations was prepared.
Then 22 μl of Cy3-GTP or Cy5-GTP was added to each well. The labeled GTP was incubated for 45 min. at room temperature. • Following GTP incubation, wells were washed 3× in Buffer-I, and 200 μl of Buffer-I were added to each well. • Following washes, the amount of bound labeled-GTP was measured with an Eppendorf AF2200 plate reader.

The target in a further experiment is Rac-1 (Homo sapiens (Human), UniProt P63000). The experiment is described as follows: Rac inhibition assay (labeled GTP). The format is binding. The settings on record: read-out: Rac-1 % Inh.
The target of the next experiment is Rho-A (Homo sapiens (Human), UniProt P61586). The experiment is described as follows: Rho inhibition assay (labeled GTP). Format: binding. The settings on record: read-out: Rho-A % Inh.
Rho-A, sequence (P61586 whole entry): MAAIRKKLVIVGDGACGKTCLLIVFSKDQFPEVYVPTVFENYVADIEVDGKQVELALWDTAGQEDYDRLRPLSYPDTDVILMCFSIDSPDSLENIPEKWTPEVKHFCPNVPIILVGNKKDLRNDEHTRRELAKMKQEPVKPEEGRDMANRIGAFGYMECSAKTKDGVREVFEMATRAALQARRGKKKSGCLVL

KRas G12D mutant protein, sequence (P01116-2 other isoform, or with tags, fused parts or gaps G12D): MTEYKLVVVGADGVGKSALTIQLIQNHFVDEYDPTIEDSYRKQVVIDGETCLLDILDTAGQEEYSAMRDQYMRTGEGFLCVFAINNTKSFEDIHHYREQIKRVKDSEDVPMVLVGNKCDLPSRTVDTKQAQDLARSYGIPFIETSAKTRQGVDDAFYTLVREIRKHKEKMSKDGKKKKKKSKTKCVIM

Turning to `Cc1sc2c(O)nc(-c3nccn3C)nc2c1-c1ccccc1` [drawing 3912], the inhibition at 20 µM on KRas G12D mutant protein was in the range of 25 to 50%; on Rac-1, 25 to 50%; on Rho-A, 51 to 75%.

Take `Cn1ccnc1-c1nc(O)c2scc(-c3cccc(Cl)c3)c2n1` [drawing 3935]: the inhibition at 20 µM at KRas G12D mutant protein lay in the range of 25 to 50%; on Rac-1, 51 to 75%; on Rho-A, 51 to 75%.

With `COCCNc1nc(-c2nccn2C)nc2sc(-c3ccccc3)c(-c3ccccn3)c12` [drawing 3940], the inhibition at 20 µM on KRas G12D mutant protein was in the range of 25 to 50%; on Rac-1, 25 to 50%; on Rho-A, 51 to 75%.

With `Cn1ccnc1-c1nc(NCCOC2CC2)c2c(-c3ccccc3)c(-c3ccccc3)sc2n1` [drawing 3894], the inhibition at 20 µM at KRas G12D mutant protein fell in the range of 1 to 25%; at Rac-1, 25 to 50%; at Rho-A, 1 to 25%.

On to `Cn1ccnc1-c1nc(O)c2sc(-c3ccccc3)c(-c3ccccc3)c2n1` [drawing 3906], for which the inhibition at 20 µM on KRas G12D mutant protein is 0%; at Rac-1 it was 0%; at Rho-A it was 1 to 25%.

On to `Cn1ccnc1-c1nc(O)c2scc(-c3ccc(F)cc3F)c2n1` [drawing 3934], for which the inhibition at 20 µM at KRas G12D mutant protein is 25 to 50%; at Rac-1, 51 to 75%; on Rho-A it was 25 to 50%.

For the compound `Oc1nc(-c2ccncn2)nc2c(-c3cccc(C(F)(F)F)c3)csc12` [drawing 3925], the inhibition at 20 µM at KRas G12D mutant protein, at Rac-1 and at Rho-A was 1 to 25% each time.

Turning to `CCOCCNc1nc(-c2nccn2C)nc2sc(-c3ccccc3)c(-c3ccccc3)c12` [drawing 3893], the inhibition at 20 µM on KRas G12D mutant protein, at Rac-1 and on Rho-A was 51 to 75% in each case.

For the compound `COCC(C)Nc1nc(-c2nccn2C)nc2sc(-c3ccccc3)c(-c3ccccc3)c12` (stereo not drawn) [drawing 3895], the inhibition at 20 µM on KRas G12D mutant protein, at Rac-1 and at Rho-A was 1 to 25% throughout.

Regarding `COC(C)(C)c1ccc(-c2csc3c(O)nc(-c4nccn4C)nc23)cc1` [drawing 3936], the inhibition at 20 µM was 25 to 50% on KRas G12D mutant protein, 25 to 50% at Rac-1 and 51 to 75% at Rho-A.

`COCCNc1nc(-c2cn(C)cn2)nc2sc(-c3ccccc3)c(-c3ccccc3)c12` [drawing 3901]: the inhibition at 20 µM at KRas G12D mutant protein lay in the range of 25 to 50%; on Rac-1, 51 to 75%; on Rho-A, 51 to 75%.

Take `Cn1cnc(-c2nc(O)c3scc(-c4cccc(OC(F)(F)F)c4)c3n2)c1` [drawing 3924]: the inhibition at 20 µM on KRas G12D mutant protein, on Rac-1 and at Rho-A was 25 to 50% each time.

With `COCCNc1nc(-c2nccn2C)nc2sc(C3CCOCC3)c(-c3ccccc3)c12` [drawing 3908], the inhibition at 20 µM on KRas G12D mutant protein is 51 to 75%; on Rac-1, 76 to 100%; at Rho-A, 51 to 75%.

On to `Cn1ccnc1-c1nc(O)c2scc(-c3ccccc3Cl)c2n1` [drawing 3933], for which the figures for the inhibition at 20 µM at KRas G12D mutant protein, at Rac-1 and at Rho-A were 25 to 50%, 51 to 75% and 51 to 75%, respectively.

In the case of `Cn1ccnc1-c1nc(O)c2scc(-c3cccc(OC(F)(F)F)c3)c2n1` [drawing 3921], the inhibition at 20 µM at KRas G12D mutant protein fell in the range of 51 to 75%; at Rac-1, 51 to 75%; on Rho-A, 25 to 50%.

With `Oc1nc(-c2ncccn2)nc2c(-c3cccc(C(F)(F)F)c3)csc12` [drawing 3926], the inhibition at 20 µM at KRas G12D mutant protein lay in the range of 25 to 50%; at Rac-1, 51 to 75%; at Rho-A, 51 to 75%.

On to `CC(C)COc1ccc(-c2csc3c(O)nc(-c4cn(C)cn4)nc23)cn1` [drawing 3923], for which the inhibition at 20 µM is 1 to 25% on KRas G12D mutant protein, 25 to 50% at Rac-1 and 25 to 50% on Rho-A.

For the compound `COCCN(C)c1nc(-c2nccn2C)nc2sc(-c3ccccc3)c(-c3ccccc3)c12` [drawing 3884], the inhibition at 20 µM at KRas G12D mutant protein lay within 51 to 75%; on Rac-1 it was 25 to 50%; at Rho-A, 25 to 50%.

Regarding `COCCNc1nc(-c2nccn2C)nc2sc(C)c(-c3ccccc3)c12` [drawing 3902], the inhibition at 20 µM on KRas G12D mutant protein, on Rac-1 and at Rho-A was 51 to 75% each time.

As to `Cn1ccnc1-c1nc(NCCOC(F)(F)F)c2c(-c3ccccc3)c(-c3ccccc3)sc2n1` [drawing 3886], the inhibition at 20 µM on KRas G12D mutant protein, at Rac-1 and on Rho-A was 25 to 50% in each case.

In the case of `CCOCCOc1nc(-c2nccn2C)nc2sc(-c3ccccc3)c(-c3ccccc3)c12` [drawing 3890], the values for the inhibition at 20 µM on KRas G12D mutant protein, at Rac-1 and on Rho-A were 1 to 25%, 1 to 25% and 25 to 50%, respectively.

Take `Cc1sc2c(O)nc(-c3nccn3C)nc2c1-c1cccc(C(F)(F)F)c1` [drawing 3917]: the inhibition at 20 µM on KRas G12D mutant protein was 1 to 25%; at Rac-1, 25 to 50%; at Rho-A, 0%.

As for `Cc1sc2c(O)nc(-c3nccn3C)nc2c1-c1ccc(F)cc1F` [drawing 3939], the inhibition at 20 µM at KRas G12D mutant protein, on Rac-1 and on Rho-A was 1 to 25% each time.

As to `COCCNc1nc(-c2cn(C)cn2)nc2sc(C)c(-c3ccccc3)c12` [drawing 3903], the inhibition at 20 µM on KRas G12D mutant protein was in the range of 25 to 50%; on Rac-1, 51 to 75%; at Rho-A it was 51 to 75%.

With `Cc1sc2c(O)nc(-c3nccn3C)nc2c1-c1ccc(OC(C)C)c(F)c1` [drawing 3928], the inhibition at 20 µM on KRas G12D mutant protein was 51 to 75%; on Rac-1, 51 to 75%; at Rho-A, 25 to 50%.

Consider `CC(CO)Nc1nc(-c2nccn2C)nc2sc(-c3ccccc3)c(-c3ccccc3)c12` (stereo not drawn) [drawing 3896], for which the inhibition at 20 µM on KRas G12D mutant protein, at Rac-1 and on Rho-A was 1 to 25% in each case.

In the case of `COCCCNc1nc(-c2nccn2C)nc2sc(-c3ccccc3)c(-c3ccccc3)c12` [drawing 3888], the results for the inhibition at 20 µM on KRas G12D mutant protein, on Rac-1 and at Rho-A were 51 to 75%, 25 to 50% and 51 to 75%, respectively.

In the case of `Cc1sc2c(O)nc(-c3nccn3C)nc2c1-c1ccccc1Cl` [drawing 3920], the inhibition at 20 µM was in the range of 25 to 50% at KRas G12D mutant protein, 51 to 75% on Rac-1 and 51 to 75% on Rho-A.

Regarding `Cn1cnc(-c2nc(O)c3scc(-c4cccc(C(F)(F)F)c4)c3n2)c1` [drawing 3922], the inhibition at 20 µM on KRas G12D mutant protein, on Rac-1 and on Rho-A was 25 to 50% in each case.

As for `COc1ccc(-c2c(C)sc3c(O)nc(-c4nccn4C)nc23)cn1` [drawing 3919], the inhibition at 20 µM at KRas G12D mutant protein was 1 to 25%; on Rac-1, 1 to 25%; on Rho-A it was 0%.

`COCCNc1nc(-c2nccn2C)nc2sc(-c3ccccc3)c(-c3ccc(OC)cc3)c12` [drawing 3907]: the inhibition at 20 µM on KRas G12D mutant protein was in the range of 25 to 50%; at Rac-1, 51 to 75%; on Rho-A it was 51 to 75%.

Consider `COc1ccc(-c2c(-c3ccccc3)sc3c(O)nc(-c4nccn4C)nc23)cn1` [drawing 3911], for which the inhibition at 20 µM on KRas G12D mutant protein, on Rac-1 and on Rho-A was 1 to 25% throughout.

As for `COCCNc1nc(-c2nccn2C)nc2sc(-c3ccc(OC)cc3)c(-c3ccccc3)c12` [drawing 3915], the values for the inhibition at 20 µM on KRas G12D mutant protein, on Rac-1 and on Rho-A were 25 to 50%, 25 to 50% and 1 to 25%, respectively.

Regarding `CC(C)COc1ccc(-c2c(-c3ccccc3)sc3c(O)nc(-c4nccn4C)nc23)cn1` [drawing 3905], the inhibition at 20 µM at KRas G12D mutant protein, at Rac-1 and on Rho-A was 51 to 75% in each case.

Regarding `CC(C)OCCNc1nc(-c2nccn2C)nc2sc(-c3ccccc3)c(-c3ccccc3)c12` [drawing 3885], the inhibition at 20 µM at KRas G12D mutant protein lay within 51 to 75%; at Rac-1 it was 25 to 50%; at Rho-A, 25 to 50%.

Consider `CC(C)COc1ccc(-c2csc3c(O)nc(-c4nccn4C)nc23)cn1` [drawing 3930], for which the values for the inhibition at 20 µM on KRas G12D mutant protein, at Rac-1 and on Rho-A were 76 to 100%, 51 to 75% and 51 to 75%, respectively.

As for `COCCNc1nc(-c2nccn2C)nc2sc(-c3ccccc3Cl)c(-c3ccccc3)c12` [drawing 3899], the inhibition at 20 µM at KRas G12D mutant protein was 1 to 25%; at Rac-1, 0%; on Rho-A, 25 to 50%.

For `COCCNc1nc(-c2nccn2C)nc2sc(-c3ccccc3)c(-c3ccncc3)c12` [drawing 3914], the values for the inhibition at 20 µM at KRas G12D mutant protein, on Rac-1 and at Rho-A were 51 to 75%, 76 to 100% and 76 to 100%, respectively.

In the case of `COCCNc1nc(-c2cccc(N)n2)nc2sc(-c3ccccc3)c(-c3ccccc3)c12` [drawing 3909], the inhibition at 20 µM on KRas G12D mutant protein, at Rac-1 and on Rho-A was 0% in each case.
